# Measured values published in EP4729061A1, “USE OF AKT INHIBITOR IN PREPARATION OF DRUG FOR PREVENTING OR TREATING BREAST CANCER” (Nanjing Chia Tai Tianqing Pharmaceutical Co., Ltd., priority 2023, dated 2024).
# Where two headings read alike, the source gives them in different places.
# Legend:
# CAMA-1 Cells = assay: Cell proliferation inhibition, CTG (CelltiterGlo) method, alone or combined with fulvestrant; assay type: cell-based; settings: compound alone; for IC50: Homo sapiens, CAMA-1, 168 h, 7 days
# Protocol: a). BT-474 cells were cultured in Hybri-Care medium supplemented with 1% antibiotics and 10% FBS, and incubated in the condition of 37°C with 5% CO2; b). MCF-7 cells were cultured in EMEM medium supplemented with 1% antibiotics, 0.01 mg/mL insulin, and 10% FBS, and incubated in the condition of 37°C with 5% CO2; c). ZR-75-1 cells were cultured in RPMI-1640 medium supplemented with 1% antibiotics and 10% FBS, and incubated in the condition of 37°C with 5% CO2; d). T47D cells were cultured in RPMI-1640 medium supplemented with 1% antibiotics, 0.2 U/mL insulin, and 10% FBS, and incubated in the condition of 37°C with 5% CO2; e) CAMA-1 cells were cultured in EMEM medium supplemented with 1% antibiotics and 10% FBS, and incubated in the condition of 37°C with 5% CO2.
# a). Cells were routinely cultured until reaching 80%-90% confluence and when the required cell number was reached, they were harvested; b). Resuspended in the corresponding medium, counted, and prepared into a cell suspension with appropriate density; c). The cell suspension was added to a 384-well plate at 40 µL per well. Table 1. Plating densities of different cell lines
# d). The cells were cultured overnight in an incubator at 37°C with 5% CO2 .
# a). The compound of Formula (A) was serially diluted 3-fold for 10 concentrations starting from a stock solution of 60 mM (using the monofumarate dihydrate of the compound of Formula (A), with the concentration calculated based on the free base of the compound of Formula (A); the compound of Formula (A) or salt thereof was prepared with reference to the preparation method disclosed in WO2022017448A1); b). […] Cells supplemented with DMSO served as control wells for high reading values; j). Cell-free medium served as control wells for low reading values. […]
# a). […] The chemiluminescent signal values were read using an Envision instrument.
# Using the inhibition rate data measured by monotherapy or single-concentration combination therapy in Section 2.4, IC50 was calculated with GraphPad Prism 8 software. […]
# [1] = Clinical trial of the compound of Formula (A) tablets as monotherapy: pharmacokinetics; assay type: in vivo, patients with advanced malignant solid tumors; settings: 400mg Monotherapy; for half-life / AUC(0-t) / Cmax / Vd/F: 400 mg
# Source text: All contents of the trial protocol with registration number CTR20211999 on the China Drug Clinical Trial Registration and Information Disclosure Platform and results thereof are incorporated herein by reference.
# Study Objectives: To evaluate the safety and tolerability of the compound of Formula (A) in patients with advanced malignant solid tumors (including breast cancer and ovarian cancer) who have failed standard treatment, and to explore the maximum tolerated dose (MTD) of the compound of Formula (A), and determine the recommended phase II dose (RP2D). To evaluate the pharmacokinetic (PK) characteristics of the compound of Formula (A) following a single dose and continuous administration for 21 days in patients with advanced solid tumors. To assess the preliminary efficacy of the compound of Formula (A) in the treatment of advanced solid tumors.
# Trial Design: The study was an open-label, single-arm, non-randomized clinical trial focusing on safety, efficacy, and pharmacokinetics. The first part was the dose-finding phase, and the second part was the dose-expansion phase.
# A starting dose of 20 mg of the compound of Formula (A) was selected, with successive dose-finding groups set as 20 mg, 50 mg, 100 mg, 200 mg, 300 mg, and 400 mg. The administration regimen included once-daily single-dose administration (with a 7-day washout period) and multiple-dose administration (continuous administration for 21 days, 28 days as one cycle, treatment continued until intolerable toxicity, disease progression, or subject withdrawal).
# The dose-expansion phase was initiated after the completion of the dose-finding phase. Based on the results of dose escalation, the dosage for the dose-expansion group was determined, with oral administration once daily (continuous administration for 21 days, 28 days as one cycle, and treatment will be continued until intolerable toxicity, disease progression, or subject withdrawal).
# 1) Safety and Tolerability: Maximum Tolerated Dose (MTD) and Dose-Limiting Toxicity (DLT); 2) PK Indicators: See Tables 13 and 14 below; 3) Efficacy Indicators: Objective Response Rate (ORR), Disease Control Rate (DCR), Duration of Response (DOR), and Progression-Free Survival (PFS). Table 13. PK Indicators of the compound of Formula (A) monotherapy in the dose-finding phase
# [2] = Multiple Doses, n=8, dose-expansion phase
# [3] = human, in vivo, oral, Single Dose, n=10, dose-finding phase
smiles,measurement,setting,value
"CC(C)NC[C@@H](C(=O)N1CCN(c2ncnc3c2[C@H](C)CC(=O)N3)[C@H]2C[C@H]21)c1ccc(Cl)cc1 [The compound of Formula (A), (R)-4-((1S,6R)-5-((S)-2-(4-chlorophenyl)-3-(isopropylamino)propanoyl)-2,5-diazabicyclo[4.1.0]heptan-2-yl)-5-methyl-5,8-dihydropyrido[2,3-d]pyrimidin-7(6H)-one]",IC50,CAMA-1 Cells,1130 nM
same,Maximum Inhibition Rate on CAMA-1 Cells,CAMA-1 Cells; maximum value fitted by GraphPad Prism 8,95.43%
same,CLss/F,[1]; [2],155.88 ± 81.87 L/h
same,"Cav,ss",[1]; [2],131.73 ± 64.21 ng/mL
same,"Cmin,ss",[1]; [2],33.76 ± 14.66 ng/mL
same,"Tmax,ss",[1]; [2],"3.00 [0,6.00] h"
same,CL/F,"[1]; Single Dose, n=10, dose-finding phase",186.378 ± 99.471 L/h
same,half-life,"[1]; human, in vivo, oral, Multiple Doses, n=8, dose-expansion phase",12.9 ± 4.19 h
same,AUC(0-t),"[1]; human, in vivo, oral, Multiple Doses, n=8, dose-expansion phase, read-out: AUC0-t,ss",3530 ± 1770 ng·h/mL
same,Cmax,"[1]; human, in vivo, oral, Multiple Doses, n=8, dose-expansion phase, read-out: Cmax,ss",462 ± 245 ng/mL
same,Vd/F,"[1]; human, in vivo, oral, Multiple Doses, n=8, dose-expansion phase, read-out: Vss/F",2880 ± 1670 L
same,half-life,[1]; [3],7.22 ± 1.91 h
same,AUC(0-t),"[1]; human, in vivo, oral, Single Dose, n=10, dose-finding phase, read-out: AUC0-t",2380 ± 1160 ng·h/mL
same,Cmax,"[1]; human, in vivo, oral, Single Dose, n=10, dose-finding phase, read-out: Cmax",392 ± 178 ng/mL
same,Vd/F,"[1]; human, in vivo, oral, Single Dose, n=10, dose-finding phase, read-out: Vz/F",1920 ± 1000 L
same,AUC,"[1]; human, in vivo, oral, Multiple Doses, n=8, dose-expansion phase, read-out: AUC0-τ",3160 ± 1540 ng·h/mL
same,Tmax,[1]; [3],3 h
"C[C@]12CC[C@@H]3c4ccc(O)cc4C[C@@H](CCCCCCCCC[S+]([O-])CCCC(F)(F)C(F)(F)F)[C@H]3[C@@H]1CC[C@@H]2O (stereo partly drawn) [Fulvestrant, reference compound]",IC50,CAMA-1 Cells,> 100 nM
